Like-named read-outs stand apart in the source and are kept apart here.
Tests used:
CatG [1] = molecular target: T1, CatG (Homo sapiens, UniProt P08311); assay: Direct inhibition of human CatG, chromogenic substrate hydrolysis assay; type: biochemical
T1 sequence (P08311 21-244): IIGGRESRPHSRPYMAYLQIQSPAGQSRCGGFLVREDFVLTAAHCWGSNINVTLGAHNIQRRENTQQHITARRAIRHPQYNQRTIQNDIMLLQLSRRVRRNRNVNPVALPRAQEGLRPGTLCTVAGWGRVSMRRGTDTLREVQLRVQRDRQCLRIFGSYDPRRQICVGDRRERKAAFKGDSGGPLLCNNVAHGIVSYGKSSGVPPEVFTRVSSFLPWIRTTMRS
Protocol: The method further comprises inhibition of proteases. […] To each well of a 96-well microplate containing 88 μl of 20 mM tris buffer containing 100 mM NaCl, 2.5 mM CaCl2, 0.1% PEG 8000 and 0.05% tween 80 was added 3 μl of CatG (final concentration of 30 nM), and 5 μl of H2O or potential inhibitor (final concentration of 0-100 μM). Following a 5-min incubation, 3 μl of CatG substrate was added (final concentration 750 μM) and the residual CatG activity was obtained from the initial rate of increase of absorbance at 405 nm. The relative residual activity of CatG at each of the inhibitor concentrations was obtained from the ratio of CatG activity in the presence and absence of the inhibitor. Logistic Equation (1) was used to plot the dose-dependence curve to obtain the IC50 (potency) and efficacy of CatG inhibition. Here, Y is the ratio of residual CatG activity in the presence of inhibitor to that in its absence, YO and YM are the minimum and maximum values of fractional residual CatG activity, respectively, IC50 is the concentration of the inhibitor that results in 50% inhibition of CatG activity and HS is the Hill slope.
To each well of a 96-well microplate containing 88 μl of 20 mM tris buffer containing 100 mM NaCl, 2.5 mM CaCl2, 0.1% PEG 8000 and 0.05% tween 80 was added 3 μl of CatG (final concentration of 30 nM), and 5 μl of H2O or potential inhibitor (final concentration of 0-100 μM). Following a 5-min incubation, 3 μl of CatG substrate was added (final concentration 750 μM) and the residual CatG activity was obtained from the initial rate of increase of absorbance at 405 nm. The relative residual activity of CatG at each of the inhibitor concentrations was obtained from the ratio of CatG activity in the presence and absence of the inhibitor. Logistic Equation (1) was used to plot the dose-dependence curve to obtain the IC50 (potency) and efficacy of CatG inhibition. Here, Y is the ratio of residual CatG activity in the presence of inhibitor to that in its absence, YO and YM are the minimum and maximum values of fractional residual CatG activity, respectively, IC50 is the concentration of the inhibitor that results in 50% inhibition of CatG activity and HS is the Hill slope.

Thrombin (human FIIa) = Thrombin (human FIIa) (Homo sapiens, UniProt P00734); assay: Direct inhibition of thrombin, chromogenic substrate hydrolysis assay; type: biochemical; details: Tris-HCl buffer; estimated from the highest concentration used
Protocol: (§1) Direct inhibitions of thrombin (FIIa), factor VIIa (FVIIa), factor IXa (FIXa), factor Xa (FXa), FXIa, factor XIIa (FXIIa), trypsin and chymotrypsin were evaluated using the corresponding chromogenic substrate hydrolysis assays as previously reported. Briefly, to each well of a 96-well microplate containing 85-185 μl of […] Tris buffer containing 100 mM NaCl, 2.5 mM CaCl2, 0.1% PEG 8000, and 0.05% tween 80 at 25 (thrombin) or 37° C. (FVIIa, FIXa, FXa, FXIa, FXIIa, chymotrypsin, and trypsin) were added 5 μl of enzyme (thrombin, FVIIa, FIXa, FXa, FXIa, FXIIa, chymotrypsin, and trypsin) and 5 μl of the inhibitor. Following an incubation period of 5 min, the appropriate chromogenic substrates (Spectrozyme TH, Spectrozyme FIXa, Spectrozyme FXa, S-2366, Spectrozyme FXIIa and S-2222) were added and the residual enzyme activity was measured from the initial rate of increase in absorbance at 405 nm. Relative residual enzyme activity as a function of the inhibitor concentration was fitted using Logistic Equation (1) to obtain the IC50 (potency), A Y % (efficacy) of enzyme inhibition, and HS (Hill slope). […]

Human FXIa = Human FXIa (Homo sapiens, UniProt P03951); assay: Direct inhibition of FXIa, chromogenic substrate hydrolysis assay; type: biochemical; details: Tris-HCl buffer
Chain of Human FXIa (P03951 388-625): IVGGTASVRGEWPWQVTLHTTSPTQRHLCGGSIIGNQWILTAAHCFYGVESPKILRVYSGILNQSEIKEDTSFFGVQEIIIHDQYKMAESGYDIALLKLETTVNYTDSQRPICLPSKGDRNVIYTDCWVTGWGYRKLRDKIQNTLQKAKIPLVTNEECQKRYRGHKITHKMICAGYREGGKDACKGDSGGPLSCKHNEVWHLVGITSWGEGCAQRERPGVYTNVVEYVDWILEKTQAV
Chain of Human FXIa (P03951 19-387 partner): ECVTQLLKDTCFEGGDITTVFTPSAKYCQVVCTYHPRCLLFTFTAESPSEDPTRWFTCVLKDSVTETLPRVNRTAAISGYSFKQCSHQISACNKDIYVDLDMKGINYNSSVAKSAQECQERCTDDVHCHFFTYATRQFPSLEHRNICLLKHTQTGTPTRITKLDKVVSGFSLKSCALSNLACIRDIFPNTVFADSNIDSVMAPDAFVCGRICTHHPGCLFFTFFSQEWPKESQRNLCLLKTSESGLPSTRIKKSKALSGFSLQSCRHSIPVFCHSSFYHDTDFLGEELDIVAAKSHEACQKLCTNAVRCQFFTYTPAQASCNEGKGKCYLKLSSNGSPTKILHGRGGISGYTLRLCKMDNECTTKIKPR
Protocol: Direct inhibitions of thrombin (FIIa), factor VIIa (FVIIa), factor IXa (FIXa), factor Xa (FXa), FXIa, factor XIIa (FXIIa), trypsin and chymotrypsin were evaluated using the corresponding chromogenic substrate hydrolysis assays as previously reported. Briefly, to each well of a 96-well microplate containing 85-185 μl of […] Tris buffer containing 100 mM NaCl, 2.5 mM CaCl2, 0.1% PEG 8000, and 0.05% tween 80 at 25 (thrombin) or 37° C. (FVIIa, FIXa, FXa, FXIa, FXIIa, chymotrypsin, and trypsin) were added 5 μl of enzyme (thrombin, FVIIa, FIXa, FXa, FXIa, FXIIa, chymotrypsin, and trypsin) and 5 μl of the inhibitor. Following an incubation period of 5 min, the appropriate chromogenic substrates (Spectrozyme TH, Spectrozyme FIXa, Spectrozyme FXa, S-2366, Spectrozyme FXIIa and S-2222) were added and the residual enzyme activity was measured from the initial rate of increase in absorbance at 405 nm. Relative residual enzyme activity as a function of the inhibitor concentration was fitted using Logistic Equation (1) to obtain the IC50 (potency), A Y % (efficacy) of enzyme inhibition, and HS (Hill slope). The concentrations of enzymes and substrates in microplate cells were: 6 nM and 50 μM for thrombin; 1.09 nM and 125 μM for FXa; 5 nM and 125 μM for FXIIa; 89 nM and 850 μM for FIXa; 8 nM and 1000 µM for FVIIa (along with 40 nM recombinant tissue factor); 72.5 ng/ml and 80 μM for bovine trypsin; and 500 ng/ml and 240 μM for bovine chymotrypsin.

FXa = molecular target: T2, FXa (Homo sapiens, UniProt P00742); assay: Direct inhibition of FXa, chromogenic substrate hydrolysis assay; type: biochemical; details: Tris-HCl buffer
T2 construct: factor Xa (FXa), FXIa, factor XIIa (FXIIa), trypsin and chymotrypsin
T2 sequence (P00742 235-488): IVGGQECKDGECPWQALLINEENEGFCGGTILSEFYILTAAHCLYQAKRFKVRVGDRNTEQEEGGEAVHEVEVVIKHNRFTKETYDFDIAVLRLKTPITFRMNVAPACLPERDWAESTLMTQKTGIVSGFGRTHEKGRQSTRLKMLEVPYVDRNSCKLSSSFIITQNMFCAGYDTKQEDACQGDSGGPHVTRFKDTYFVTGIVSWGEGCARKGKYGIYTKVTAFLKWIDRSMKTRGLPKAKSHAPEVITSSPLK
T2 sequence (P00742 41-179 partner): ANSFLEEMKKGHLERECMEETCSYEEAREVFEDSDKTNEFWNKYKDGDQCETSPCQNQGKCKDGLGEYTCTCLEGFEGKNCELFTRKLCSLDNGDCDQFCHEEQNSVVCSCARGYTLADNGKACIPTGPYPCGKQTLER
Protocol: as §1

CatG [2] = molecular target: T1, CatG; details: reported; read-out: estimated Ki, allosteric inhibitor; cited from earlier work
[3] = Tris buffer pH 7.4, 37° C., 100 mM NaCl, read-out: IC50

Question: For O=C(Nc1cc(C(=O)Nc2ccccc2S(=O)(=O)O)cc(C(=O)Nc2ccccc2S(=O)(=O)O)c1)Nc1cc(C(=O)Nc2ccccc2S(=O)(=O)O)cc(C(=O)Nc2ccccc2S(=O)(=O)O)c1 [2,2′,2″,2″′-((5,5′-(carbonylbis(azanediyl))bis(isophthaloyl))tetrakis(azanediyl))tetrabenzenesulfonic acid], which IC50 (CatG [1]; Table 6, read-out: CATG IC50) is on record?
Answer: 1 to 5 µM

Question: With O=C(Nc1cc(C(=O)Nc2cc(S(=O)(=O)O)ccc2S(=O)(=O)O)cc(C(=O)Nc2cc(S(=O)(=O)O)ccc2S(=O)(=O)O)c1)Nc1cc(C(=O)Nc2cc(S(=O)(=O)O)ccc2S(=O)(=O)O)cc(C(=O)Nc2cc(S(=O)(=O)O)ccc2S(=O)(=O)O)c1 [2,2′,2″,2″′-((5,5′-(carbonylbis(azanediyl))bis(isophthaloyl))tetrakis(azanediyl))tetrakis(benzene-1,4-disulfonic acid)] as the compound, how does the IC50 (CatG [1]; Table 6, read-out: CATG IC50) read?
Answer: 1 to 5 µM

Question: Which IC50 (CatG [1]; Table 6, read-out: CATG IC50) does the source give for O=C(Nc1cc(C(=O)Nc2ccc(S(=O)(=O)O)cc2)cc(C(=O)Nc2ccc(S(=O)(=O)O)cc2S(=O)(=O)O)c1)Nc1cc(C(=O)Nc2ccc(S(=O)(=O)O)cc2)cc(C(=O)Nc2ccc(S(=O)(=O)O)cc2S(=O)(=O)O)c1 [4,4′-((3,3′-(carbonylbis(azanediyl))bis(5-((4-sulfophenyl)carbamoyl)benzoyl))bis(azanediyl))bis(benzene-1,3-disulfonic acid)] here?
Answer: 0.5 to 1 µM

Question: With O=C(Nc1cccc(C(=O)Nc2cccc(C(=O)Nc3cccc(P(=O)(O)O)c3)c2)c1)Nc1cccc(C(=O)Nc2cccc(C(=O)Nc3cccc(P(=O)(O)O)c3)c2)c1 [(((3,3′-((3,3′-(carbonylbis(azanediyl))bis(benzoyl))bis(azanediyl))bis(benzoyl))bis(azanediyl))bis(3,1-phenylene))bis(phosphonic acid)] as the compound, how does the IC50 (CatG [1]; Table 6, read-out: CATG IC50) read?
Answer: 1 to 10 µM

Question: Which IC50 (CatG [1]; Table 6, read-out: CATG IC50) does the source give for Cc1ccc(C(=O)Nc2ccc(CP(=O)(O)O)cc2)cc1NC(=O)c1cccc(NC(=O)Nc2cccc(C(=O)Nc3cc(C(=O)Nc4ccc(CP(=O)(O)O)cc4)ccc3C)c2)c1 [((((3,3′-((3,3′-(carbonylbis(azanediyl))bis(benzoyl))bis(azanediyl))bis(4-methylbenzoyl))bis(azanediyl))bis(4,1-phenylene))bis(methylene))bis(phosphonic acid)] here?
Answer: 10 to 100 µM

Question: For Cc1ccc(C(=O)Nc2ccc(CP(=O)(O)O)cc2CP(=O)(O)O)cc1NC(=O)Nc1cc(C(=O)Nc2ccc(CP(=O)(O)O)cc2CP(=O)(O)O)ccc1C [((((3,3′-(carbonylbis(azanediyl))bis(4-methylbenzoyl))bis(azanediyl))bis(4,1-phenylene))bis(methylene))bis(phosphonic acid)], which IC50 (CatG [1]; Table 6, read-out: CATG IC50) is on record?
Answer: 10 to 100 µM

Question: With O=C(Nc1cccc(C(=O)Nc2ccc(CP(=O)(O)O)cc2CP(=O)(O)O)c1)Nc1cccc(C(=O)Nc2ccc(CP(=O)(O)O)cc2CP(=O)(O)O)c1 [((((3,3′-(carbonylbis(azanediyl))bis(4-methylbenzoyl))bis(azanediyl))bis(benzene-4,1,3-triyl))tetrakis(methylene))tetrakis(phosphonic acid)] as the compound, how does the IC50 (CatG [1]; Table 6, read-out: CATG IC50) read?
Answer: 1 to 10 µM

Question: Which IC50 (Thrombin (human FIIa)) does the source give for O=C(Nc1cc(C(=O)Nc2ccc(S(=O)(=O)O)cc2)cc(C(=O)Nc2ccc(S(=O)(=O)O)cc2)c1)Nc1cc(C(=O)Nc2ccc(S(=O)(=O)O)cc2)cc(C(=O)Nc2ccc(S(=O)(=O)O)cc2)c1 [Formula I, 4,4′,4″,4″-((5,5′-(carbonylbis(azanediyl))bis(isophthaloyl))tetrakis(azanediyl))tetrabenzenesulfonic acid] here?
Answer: > 100 µM

Question: And the “HS (Hill slope)” value (Human FXIa)?
Answer: 1.2 ± 0.2

Question: And the IC50 (Human FXIa)?
Answer: 29.5 ± 4.6 µM

Question: What about the “ΔY (efficacy)” value (Human FXIa) of the same compound?
Answer: 90.9 ± 5.8%

Question: And the IC50 (FXa)?
Answer: > 100 µM

Question: What about the IC50 (CatG [1]; Table 6, read-out: CATG IC50) of the same compound?
Answer: 0.83 µM

Question: And the “HS (Hill slope)” value (CatG [1]; Tris buffer pH 7.4, 37° C.)?
Answer: 1.7 ± 0.4

Question: What about the “ΔY (efficacy)” value (CatG [1]; Tris buffer pH 7.4, 37° C.) of the same compound?
Answer: 91.9 ± 6.8%

Question: What about the IC50 (CatG [1]; [3]) of the same compound?
Answer: 0.083 ± 0.14 µM

Question: Which IC50 (Thrombin (human FIIa)) does the source give for Cc1ccc(C(=O)Nc2ccc(CP(=O)(O)O)cc2CP(=O)(O)O)cc1NC(=O)c1cccc(NC(=O)Nc2cccc(C(=O)Nc3cc(C(=O)Nc4ccc(CP(=O)(O)O)cc4CP(=O)(O)O)ccc3C)c2)c1 [Formula III, ((((3,3′-((3,3′-(carbonylbis(azanediyl))bis(benzoyl))bis(azanediyl))bis(4-methylbenzoyl))bis(azanediyl))bis(benzene-4,1,3-triyl))tetrakis(methylene))tetrakis(phosphonic acid)] here?
Answer: > 500 µM

Question: What about the “HS (Hill slope)” value (Human FXIa) of the same compound?
Answer: 1.9 ± 0.5

Question: And the “ΔY (efficacy)” value (Human FXIa)?
Answer: 68.0 ± 3.7%

Question: And the IC50 (FXa)?
Answer: > 100 µM

Question: What about the IC50 (CatG [1]; Table 6, read-out: CATG IC50) of the same compound?
Answer: 3.1 µM

Question: What about the “HS (Hill slope)” value (CatG [1]; Tris buffer pH 7.4, 37° C.) of the same compound?
Answer: 1.1 ± 0.1

Question: And the “ΔY (efficacy)” value (CatG [1]; Tris buffer pH 7.4, 37° C.)?
Answer: 87.5 ± 1.8%

Question: What about the IC50 (CatG [1]; [3]) of the same compound?
Answer: 3.1 µM

Question: For heparin, which Ki (CatG [2]) is on record?
Answer: < 25 pM
